This data set has as its system Human liver cancer-derived cell line (HuH-7). Kind of data set: miRNA released into serum-free culture medium from HuH-7 cells treated with carbon tetrachloride (real-time PCR). It counts as cell-based. Conditions: carbon tetrachloride 0-1000 μM, 7-day culture in serum-free maintenance medium, FIG. 2. The method, then:
Human liver cancer-derived cell line (HuH-7, purchased from ATCC) was seeded in a culture vessel of 12-well culture plate at a cell density of 20000 cells/cm^2, and cells were cultured for 7 days in a serum-free maintenance medium containing carbon tetrachloride, which was known to injure liver tissue and liver cells, at a relatively low concentration of 0-1000 μM used in World J Gastroenterol. 2008 Jun. 21; 14(23):3693-709. The maintenance medium used herein was the same as one used in Example 1.
Each culture medium was collected after 7-day culturing, and cells were removed by filtration through a 0.22 μm filter to obtain samples.
cDNA samples of Poly(A)miRNA samples were obtained in the same manner as in Example 1.
Real-time PCR was carried out using Platinum SYBR Green (produced by Invitrogen) to measure hsa-miR-21, hsa-miR-122, hsa-miR-451 and hsa-miR-16 contained in the cDNA samples. The primers used were as follows.
On the technique in general: Quantitative PCR measures a nucleic acid by following its amplification.

Molecules are shown by their SMILES.

`ClC(Cl)(Cl)Cl` [carbon tetrachloride]: the “amount of miRNA released from cells into culture medium (hsa-miR-21, hsa-miR-122, hsa-miR-451, hsa-miR-16)” value was “increased”.

(Values after patent US20120178085A1, “METHOD FOR EVALUATION OF CULTURED CELLS, AND METHOD FOR SCREENING OF BIOMARKER” (priority 2009, published 2012).)
